Laboratory results: US6303625A, “Triazolopyridines for the treatment of thrombosis disorders” (Ortho-McNeil Pharmaceutical, Inc., priority 1999, dated 2001)

How the values were obtained:
[1] = tested on: gel-filtered platelets; test: In vitro inhibition of thrombin-induced gel-filtered platelet aggregation; type: cell-based; conditions: Homo sapiens; for inhibition at 50 µM: read-out: Platelet Aggregation % Inh. (50 μM)
Description: In Vitro Inhibition of Thrombin-Induced Gel-Filtered Platelet Aggression Assay
The percentage of platelet aggregation is calculated as an increase in light transmission of compound-treated platelet concentrate vs. control-treated platelet concentrate. Human blood was obtained from drug free, normal donors into tubes containing […] sodium citrate. Platelet rich plasma (PRP) was collected by centrifugation of whole blood at 200×g for 10 min at 25° C. The PRP (5 mL) was gel filtered through Sepharose 2B (bed volume 50 mL), and the platelet count was adjusted to 2×10^7 platelets per sample. The following constituents were added to a siliconized cuvette: concentrated platelet filtrate and Tyrode's buffer (0.14M NaCl, 0.0027M KCl, 0.012M NaHCO3,0.76 mM Na2 HPO4, 0.0055M glucose, 2 mg/mL BSA and 5.0 mM HEPES @ pH 7.4) in an amount equal to 350 μl, 50 μl of 20 mM calcium and 50 μl of the test compound. Aggregation was monitored in a BIODATA aggregometer for the 3 min following the addition of agonist (thrombin 50 μl of 1 unit/mL).

[2] = molecular target: GPIIb/IIIa (Homo sapiens, UniProt P05106+P08514); test: In vitro solid phase purified glycoprotein IIb/IIIa binding assay (fibrinogen binding); conditions: for inhibition at 50 µM: read-out: Fibrinogen Binding % Inh. (50 μM)
Sequence of GPIIb/IIIa (P08514 32-887 limits assumed): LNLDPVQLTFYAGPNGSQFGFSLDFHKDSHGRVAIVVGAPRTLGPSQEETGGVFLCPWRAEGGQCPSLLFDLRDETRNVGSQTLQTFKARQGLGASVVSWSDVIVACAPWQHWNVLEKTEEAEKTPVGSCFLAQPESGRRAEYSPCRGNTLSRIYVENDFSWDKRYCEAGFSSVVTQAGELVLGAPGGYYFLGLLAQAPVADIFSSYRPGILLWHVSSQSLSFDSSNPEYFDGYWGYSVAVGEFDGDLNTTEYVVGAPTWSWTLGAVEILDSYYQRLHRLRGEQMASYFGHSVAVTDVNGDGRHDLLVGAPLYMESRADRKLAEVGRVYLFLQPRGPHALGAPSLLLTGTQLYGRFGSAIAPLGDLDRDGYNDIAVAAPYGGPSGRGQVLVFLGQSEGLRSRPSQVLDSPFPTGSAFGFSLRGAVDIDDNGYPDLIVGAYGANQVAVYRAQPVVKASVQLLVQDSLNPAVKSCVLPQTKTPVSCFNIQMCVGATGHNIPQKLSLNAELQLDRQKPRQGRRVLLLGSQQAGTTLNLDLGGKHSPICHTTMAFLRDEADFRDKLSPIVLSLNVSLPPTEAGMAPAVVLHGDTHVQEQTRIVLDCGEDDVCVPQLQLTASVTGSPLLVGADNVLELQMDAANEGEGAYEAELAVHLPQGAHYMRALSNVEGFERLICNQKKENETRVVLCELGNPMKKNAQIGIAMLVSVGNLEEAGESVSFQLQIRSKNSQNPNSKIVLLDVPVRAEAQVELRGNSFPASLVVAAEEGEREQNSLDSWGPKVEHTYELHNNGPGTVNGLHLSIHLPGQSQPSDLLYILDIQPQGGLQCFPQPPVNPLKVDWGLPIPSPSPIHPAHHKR
Sequence of GPIIb/IIIa (P08514 891-1039 limits assumed): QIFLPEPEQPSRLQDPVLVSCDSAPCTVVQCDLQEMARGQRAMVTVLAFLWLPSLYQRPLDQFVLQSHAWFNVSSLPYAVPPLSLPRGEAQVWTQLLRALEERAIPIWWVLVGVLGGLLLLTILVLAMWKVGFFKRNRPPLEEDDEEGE
Sequence of GPIIb/IIIa (P05106 27-788): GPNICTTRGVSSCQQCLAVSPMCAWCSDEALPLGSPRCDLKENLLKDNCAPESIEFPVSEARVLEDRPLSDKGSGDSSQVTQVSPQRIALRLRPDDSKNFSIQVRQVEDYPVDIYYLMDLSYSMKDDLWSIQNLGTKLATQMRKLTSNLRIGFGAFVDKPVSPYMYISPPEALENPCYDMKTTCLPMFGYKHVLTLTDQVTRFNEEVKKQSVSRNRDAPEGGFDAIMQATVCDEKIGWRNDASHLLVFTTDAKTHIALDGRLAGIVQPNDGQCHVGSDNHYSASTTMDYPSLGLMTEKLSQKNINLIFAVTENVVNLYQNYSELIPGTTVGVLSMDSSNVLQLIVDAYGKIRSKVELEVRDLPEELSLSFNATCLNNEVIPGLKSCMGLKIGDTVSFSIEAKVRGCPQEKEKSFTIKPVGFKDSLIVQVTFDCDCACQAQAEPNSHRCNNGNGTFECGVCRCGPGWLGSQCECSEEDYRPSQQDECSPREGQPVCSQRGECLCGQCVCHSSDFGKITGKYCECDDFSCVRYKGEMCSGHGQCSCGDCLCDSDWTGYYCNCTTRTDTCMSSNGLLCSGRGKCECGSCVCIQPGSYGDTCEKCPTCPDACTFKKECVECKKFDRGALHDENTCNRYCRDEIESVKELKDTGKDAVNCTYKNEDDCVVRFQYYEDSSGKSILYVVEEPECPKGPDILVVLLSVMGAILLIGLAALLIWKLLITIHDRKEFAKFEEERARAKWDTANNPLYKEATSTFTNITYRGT
Description: In Vito Solid Phase Purified Glycoprotein IIB/IIA Binding Assay
The plate was covered and incubated overnight at 4° C. The GPIIb/IIa solution was discarded and 150 μl of 5% BSA was added and incubated at RT for 1-3 h. The plate was washed extensively with modified Tyrodes buffer. Biotinylated fibrinogen (25 μl/well) at 2×final concentration was added to the wells that contain the test compounds (25 μl/well). The plate was covered and incubated at RT for 2-4 h. Twenty minutes prior to incubation completion, one drop of Reagent A (Vecta Stain ABC Horse Radish Peroxidase kit, Vector Laboratories, Inc.) and one drop Reagent B were added with mixing to 5 mL modified Tyrodes buffer mix and let stand. The ligand solution was discarded and the plate washed (5×200 μl/well) with modified Tyrodes buffer. Vecta Stain HRP-Biotin-Avidin reagent (50 μl/well, as prepared above) was added and incubated at RT for 15 min. The Vecta Stain solution was discarded and the wells washed (5×200 μl/well) with modified Tyrodes buffer. Developing buffer (10 mL of 50 mM citrate/phosphate buffer @ pH 5.3, 6 mg o-phenylenediamine, 6 μl 30% H2 O2; 50 μl/well) was added and incubated at RT for 3-5 min, and then 2N H2 SO4 (50 μl/well) was added. The absorbance was read at 490 nm.

[3] = tested on: ADP-induced ex vivo platelet aggregation; test: Ex vivo dog study: duration of >50% inhibition of ADP-induced ex vivo platelet aggregation; type: in vivo
Description: Adult mongrel dogs (8-13 kg) were anesthetized with sodium pentobarbital (35 mg/kg, i.v.) and artificially respired. Arterial blood pressure and heart rate were measured using a Millar catheter-tip pressure transducer inserted in a femoral artery. Another Millar transducer was placed in the left ventricle (LV) via a carotid artery to measure LV end diastolic pressure and indices of myocardial contractility. A lead II electrocardiogram was recorded from limb electrodes. Catheters were placed in a femoral artery and vein to sample blood and infuse drugs, respectively. Responses were continuously monitored using a Modular Instruments data acquisition system.
Arterial blood samples (5-9 ml) were withdrawn into tubes containing 3.8% sodium citrate to prepare platelet rich plasma (PRP) and to determine effects on coagulation parameters: prothrombin time (PT) and activated partial thromboplastin time (APTT). Separate blood samples (1.5 ml) were withdrawn in EDTA to determine hematocrit and cell counts (platelets, RBC's and white cells). Template bleeding times were obtained from the buccal surface using a symplate incision devise and Whatman filter paper.
Aggregation of PRP was performed using a BioData aggregometer. Aggregation of whole blood used a Chronolog impedance aggregometer. PT and APTT were determined on either a BioData or ACL 3000+ coagulation analyzer. Cells were counted with a Sysmex K-1000.
Compounds were solubilized in a small volume of dimethylformamide (DMF) and diluted with saline to a final concentration of 10% DMF. Compounds were administered by the intravenous route with a Harvard infusion pump. Doses was administered over a 15 min interval at a constant rate of 0.33 ml/min. Data were obtained after each dose and in 30 min intervals following the end of drug administration. Oral doses were administered as aqueous solutions via syringe.

In the case of O=C(O)C[C@H](NC(=O)C1CCCn2c(CCC3CCNCC3)nnc21)c1cccnc1 (stereo partly drawn) [Compound 1, β-[[[5,6,7,8-Tetrahydro-3-[2-(4-piperidinyl)ethyl]-1,2,4-triazolo[4,3-a]pyridin-8-yl]carbonyl]amino]-βS-3-pyridinepropanoic acid], the IC50 [1] is reported as 16 nM, the inhibition at 50 µM [1] is reported as 100% and the IC50 [2] is reported as 0.4 nM. For the same molecule, the inhibition at 50 µM [2] was 100%, the “Intravenous Dosing Duration (of >50% inhibition of ADP-induced ex vivo platelet aggregation)” value ([3]; 0.3 mpk) was 180 min and the “Oral Dosing Duration (of >50% inhibition of ADP-induced ex vivo platelet aggregation)” value ([3]; 3 mpk) was 360 min.

O=C(O)CCNC(=O)C1CCCn2c(CCC3CCNCC3)nnc21 (stereo not drawn) [Compound 2, β-[[[5,6,7,8-Tetrahydro-3-[2-(4-piperidinyl)ethyl]-1,2,4-triazolo[4,3-a]pyridin-8-yl]carbonyl]amino]-β-propanoic acid] was tested, and the IC50 [1] was 1300 nM, the inhibition at 50 µM [1] was 98% and the IC50 [2] was 7.2 nM. It also gave an inhibition at 50 µM [2] of 98%.

Molecule O=C(N[C@@H](CNC(=O)C1CCCn2c(CCC3CCNCC3)nnc21)C(=O)O)OCc1ccccc1 (stereo partly drawn) [Compound 3, β-[[[5,6,7,8-Tetrahydro-3-[2-(4-piperidinyl)ethyl]-1,2,4-triazolo[4,3-a]pyridin-8-yl]carbonyl]amino]-αS-benzyloxycarbonylamino-propanoic acid] has an IC50 [1] of 68 nM, an inhibition at 50 µM [1] of 100% and an IC50 [2] of 0.48 nM. For the same molecule, the inhibition at 50 µM [2] was 100%, the “Intravenous Dosing Duration (of >50% inhibition of ADP-induced ex vivo platelet aggregation)” value ([3]; 0.1 mpk) was 120 min and the “Oral Dosing Duration (of >50% inhibition of ADP-induced ex vivo platelet aggregation)” value ([3]; 1 mpk) was 300 min.

CCN(CC)C(=O)COC(=O)C[C@H](NC(=O)C1CCCn2c(CCC3CCNCC3)nnc21)c1cccnc1 (stereo partly drawn) [Compound 4, β-[[[5,6,7,8-Tetrahydro-3-[2-(4-piperidinyl)ethyl]-1,2,4-triazolo[4,3-a]pyridin-8-yl]carbonyl]amino]-βS-3-pyridinepropanoic acid 2-(Diethylamino)-2-oxoethyl ester] was tested, and the IC50 [1] was 16400 nM, the inhibition at 50 µM [1] was 100% and the IC50 [2] was 44.7 nM. For the same molecule, the inhibition at 50 µM [2] was 100% and the “Oral Dosing Duration (of >50% inhibition of ADP-induced ex vivo platelet aggregation)” value ([3]; 1 mpk) was under 30 min.

With O=C(N[C@@H](CNC(=O)C1CCCn2c(/C=C/C3CCNCC3)nnc21)C(=O)O)OCc1ccccc1 (stereo partly drawn) [Compound 5, β-[[[5,6,7,8-Tetrahydro-3-[2-(4-pipieridinyl)E-ethylene]-1,2,4-triazolo[4,3-a]pyridin-8-yl]carbonyl]amino]-αS-benzyloxycarbonylamino-propanoic acid] the IC50 [1] was 23 nM, the inhibition at 50 µM [1] was 100% and the IC50 [2] was 0.1 nM. The inhibition at 50 µM [2] was 100%, the “Intravenous Dosing Duration (of >50% inhibition of ADP-induced ex vivo platelet aggregation)” value ([3]; 0.1 mpk) was 120 min and the “Oral Dosing Duration (of >50% inhibition of ADP-induced ex vivo platelet aggregation)” value ([3]; 1 mpk) was 360 min.

CCN(CC)C(=O)COC(=O)[C@H](CNC(=O)C1CCCn2c(CCC3CCNCC3)nnc21)NC(=O)OCc1ccccc1 (stereo partly drawn) [Compound 6, β-[[[5,6,7,8-Tetrahydro-3-[2-(4-piperidinyl)ethyl]-1,2,4-triazolo[4,3-a]pyridin-8-yl]carbonyl]amino]-αS-benzyloxycarbonylamino-propanoic acid 2-(Diethylamino)-2-oxoethyl ester] gave an IC50 [1] of 1900 nM, an inhibition at 50 µM [1] of 100% and an IC50 [2] of 8.2 nM. It also gave an inhibition at 50 µM [2] of 100%.

O=C(O)CC(NC(=O)C1CCCn2c(CCC3CCNCC3)nnc21)c1ccsc1 (stereo not drawn) [Compound 7, β-[[[5,6,7,8-Tetrahydro-3-[2-(4-piperidinyl)ethyl]-1,2,4-triazolo[4,3-a]pyridin-8-yl]carbonyl]amino]-β-3-thiophenepropanoic acid] gave an IC50 [1] of 350 nM, an inhibition at 50 µM [1] of 100% and an IC50 [2] of 0.75 nM. It also gave an inhibition at 50 µM [2] of 100%.

O=C(NC(CNC(=O)C1CCCn2c(C(F)=CC3CCNCC3)nnc21)C(=O)O)OCc1ccccc1 (stereo not drawn) [Compound 9, β-[[[6,7,8-Tetrahydro-3-[2-(4-piperidinyl)Z-1-fluoroethylene]-1,2,4-triazolo[4,3-a]pyridin-8-yl]carbonyl]amino]-αS-benzyloxycarbonylamino-propanoic acid] gave an IC50 [1] of 500 nM, an inhibition at 50 µM [1] of 100% and an IC50 [2] of 1.7 nM. It also gave an inhibition at 50 µM [2] of 100%.

O=C(O)CC(NC(=O)C1CCCn2c(/C=C/C3CCNCC3)nnc21)c1ccncc1 (stereo not drawn) [Compound 10, β-[[[5,6,7,8-Tetrahydro-3-[2-(4-piperidinyl)E-ethylene]-1,2,4-triazolo[4,3-a]pyridin-8-yl]carbonyl]amino]-β-4-pyridinepropanoic acid] showed an IC50 [1] of 180 nM, an inhibition at 50 µM [1] of 100% and an IC50 [2] of 0.94 nM. It also gave an inhibition at 50 µM [2] of 100%.

With Cc1noc(C)c1S(=O)(=O)N[C@@H](CNC(=O)C1CCCn2c(/C=C/C3CCNCC3)nnc21)C(=O)O (stereo partly drawn) [Compound 11, β-[[[5,6,7,8-Tetrahydro-3-[2-(4-piperidinyl)E-ethylene]-1,2,4-triazolo[4,3-a]pyridin-8-yl]carbonyl]amino]-αS-4-(3,5-dimethylisoxazolyl)sulfonylamino-propanoic acid] the IC50 [1] was 110 nM, the inhibition at 50 µM [1] was 100% and the IC50 [2] was 1.1 nM. It also gave an inhibition at 50 µM [2] of 100%.

In the case of O=C(O)C[C@H](NC(=O)C1CCCn2c(/C=C/C3CCNCC3)nnc21)c1cnc2ccccc2c1 (stereo partly drawn) [Compound 13, β-[[[5,6,7,8-Tetrahydro-3-[2-(4-piperidinyl)E-ethylene]-1,2,4-tiazolo[4,3-a]pyridin-8-yl]carbonyl]amino]-βS-3-quinolinylpropanoic acid], the IC50 [1] is reported as 57 nM, the inhibition at 50 µM [1] is reported as 100% and the IC50 [2] is reported as 0.44 nM. For the same molecule, the inhibition at 50 µM [2] was 100%.

With O=C(NC[C@H](NS(=O)(=O)Cc1ccccc1)C(=O)O)C1CCCn2c(/C=C/C3CCNCC3)nnc21 (stereo partly drawn) [Compound 14, β-[[[5,6,7,8-Tetrahydro-3-[2-(4-piperidinyl)E-ethylene]-1,2,4-triazolo[4,3-a]pyridin-8-yl]carbonyl]amino]-αS-benzylsulfonylamino-propanoic acid] the IC50 [1] was 43 nM, the inhibition at 50 µM [1] was 100% and the IC50 [2] was 0.51 nM. It also gave an inhibition at 50 µM [2] of 100%.

For O=C(Cc1cccnc1)N[C@@H](CNC(=O)C1CCCn2c(/C=C/C3CCNCC3)nnc21)C(=O)O (stereo partly drawn) [Compound 15, β-[[[5,6,7,8-Tetrahydro-3-[2-(4-piperidinyl)E-ethylene]-1,2,4-triazolo[4,3-a]pyridin-8-yl]carbonyl]amino]-αS-3-pyridylacetylamino-propanoicacid], the IC50 [1] was 120 nM, the inhibition at 50 µM [1] was 100% and the IC50 [2] was 1.4 nM. For the same molecule, the inhibition at 50 µM [2] was 100%.

CC(C)COC(=O)N[C@@H](CNC(=O)C1CCCn2c(/C=C/C3CCNCC3)nnc21)C(=O)O (stereo partly drawn) [Compound 16, β-[[[5,6,7,8-Tetrahydro-3-[2-(4-piperidinyl)E-ethylene]-1,2,4-triazolo[4,3-a]pyridin-8-yl]carbonyl]amino]-αS-isobutyloxycarbonylamino-propanoic acid] showed an IC50 [1] of 600 nM, an inhibition at 50 µM [1] of 100% and an IC50 [2] of 0.6 nM. For the same molecule, the inhibition at 50 µM [2] was 100%.

In the case of O=C(O)C[C@H](NC(=O)c1cccn2c(CCC3CCNCC3)nnc12)c1cccnc1 [Compound 17, β-[[[3-[2-(4-piperidinyl)ethyl]-1,2,4-triazolo[4,3-a]pyridin-8-yl]carbonyl]amino]-βS-3-pyridylpropanoic acid], the IC50 [1] is reported as over 1000 nM, the IC50 [2] is reported as 443 nM and the inhibition at 50 µM [2] is reported as 90%.
